In US9073821B2, “Hydroxamic acid derivative” (priority 2010, dated 2015):

What follows are compounds tested against Pseudomonas aeruginosa LpxC enzyme (Pseudomonas aeruginosa (strain ATCC 15692 / DSM 22644 / CIP 104116 / JCM 14847 / LMG 12228 / 1C / PRS 101 / PAO1), UniProt P47205) (assay: biochemical). Conditions: class symbols A/B/C by IC50; Table 3; read-out: Enzyme inhibitory activity (inhibitory activity on Pseudomonas aeruginosa LpxC enzyme).
Assay type: biochemical
`CNC(=O)[C@@](C)(C(=O)NO)N(C)C(=O)c1ccc(C#C/C=C/C2CC2COC)cc1` (stereo partly drawn) [Compound 596, (2S)-N-hydroxy-2-[(4-{(3E)-4-[2-(methoxymethyl)cyclopropyl]but-3-en-1-yn-1-yl}benzoyl)(methyl)amino]-N′,2-dimethylpropanediamide] showed an IC50 of less than 10 nM.
With `CCOC1CN(Cc2ccc(C#Cc3ccc(C(=O)N(C)C(C(=O)NC)C(=O)NO)cc3F)cc2)C1` (stereo not shown) [Compound 581, 2-[{[4-({4-[(3-ethoxyazetidin-1-yl)methyl]phenyl}ethynyl)-3-fluorophenyl]carbonyl}(methyl)amino]-N-hydroxy-N′-methylpropanediamide] the IC50 was less than 10 nM.
Compound `CNC(=O)[C@@](C)(C(=O)NO)N(C)C(=O)c1ccc(C#Cc2coc(CN3CCOCC3)c2)cc1` [Compound 592, (2S)-N-hydroxy-N′,2-dimethyl-2-[methyl(4-{[5-(morpholin-4-ylmethyl)furan-3-yl]ethynyl}benzoyl)amino]propanediamide] has an IC50 of less than 10 nM.
For `CNC(=O)C(C(=O)NO)N(C)C(=O)c1ccc(C#Cc2cnn(CCOC)c2)cc1` (stereo not shown) [Compound 518, N-hydroxy-2-{[(4-{[1-(2-methoxyethyl)-1H-pyrazol-4-yl]ethynyl}phenyl)carbonyl](methyl)amino}-N′-methylpropanediamide], the IC50 was 10 to 100 nM.
Compound `CNC(=O)C(C(=O)NO)N(C)C(=O)c1ccc(C#Cc2ccc(CN3CC4CC4C3)cc2)cc1` (stereo not shown) [Compound 515, 2-{[(4-{[4-(3-azabicyclo[3.1.0]hex-3-ylmethyl)phenyl]ethynyl}phenyl)carbonyl](methyl)amino}-N-hydroxy-N′-methylpropanediamide] has an IC50 of less than 10 nM.
`CCOC1CN(Cc2ccc(C#Cc3ccc(C(=O)N(C)C(C(=O)NC)C(=O)NO)cc3)cc2C)C1` (stereo not shown) [Compound 562, 2-[{[4-({4-[(3-ethoxyazetidin-1-yl)methyl]-3-methylphenyl}ethynyl)phenyl]carbonyl}(methyl)amino]-N-hydroxy-N′-methylpropanediamide] showed an IC50 of less than 10 nM.

Same assay, conditions: inhibitory activity on Pseudomonas aeruginosa LpxC enzyme, class symbols A/B/C; read-out: Enzyme inhibitory activity
`CNC(=O)C(C(=O)NO)N(C)C(=O)c1ccc(-c2ccc(CNC(C)=O)cc2)cc1` (stereo not shown) [Compound 241, 2-[({4′-[(acetylamino)methyl]biphenyl-4-yl}carbonyl)(methyl)amino]-N-hydroxy-N′-methylpropanediamide] showed an IC50 of 10 to 100 nM.
With `O=C(NC(C(=O)NO)C(=O)NCCc1ccccn1)c1ccc(-c2ccc(OCCO)cc2)cc1` (stereo not shown) [Compound 151, N-hydroxy-2-({[4′-(2-hydroxyethoxy)biphenyl-4-yl]carbonyl}amino)-N′-[2-(pyridin-2-yl)ethyl]propanediamide] the IC50 was less than 10 nM.
`O=C(NC(C(=O)NO)C(=O)NCC(=O)N1CCCC1)c1ccc(-c2ccc(OCCO)cc2)cc1` (stereo not shown) [Compound 141, N-hydroxy-2-({[4′-(2-hydroxyethoxy)biphenyl-4-yl]carbonyl}amino)-N′-[2-oxo-2-(pyrrolidin-1-yl)ethyl]propanediamide] gave an IC50 of less than 10 nM.
`CNC(=O)C(C(=O)NO)N(C)C(=O)c1ccc(-c2ccc3c(c2)COC3)cc1` (stereo not shown) [Compound 290, 2-[{[4-(1,3-dihydro-2-benzofuran-5-yl)phenyl]carbonyl}(methyl)amino]-N-hydroxy-N′-methylpropanediamide] was tested, and the IC50 was less than 10 nM.
`CNC(=O)C(C(=O)NO)N(C)C(=O)c1ccc(-c2ccc(N3CCCC3)cc2)cc1` (stereo not shown) [Compound 256, N-hydroxy-N′-methyl-2-(methyl {[4′-(pyrrolidin-1-yl)biphenyl-4-yl]carbonyl}amino)propanediamide] was tested, and the IC50 was less than 10 nM.
`CNC(=O)C(C(=O)NO)N(C)C(=O)c1ccc(OC2C=CCCC2)cc1` (stereo not shown) [Compound 444, 2-[{[4-(cyclohex-2-en-1-yloxy)phenyl]carbonyl}(methyl)amino]-N-hydroxy-N′-methylpropanediamide] gave an IC50 of 10 to 100 nM.
`CNC(=O)C(C(=O)NO)N(C)C(=O)c1ccc(-c2ccc(CCN3CCOCC3)cc2)cc1` (stereo not shown) [Compound 236, N-hydroxy-N′-methyl-2-[methyl({4′-[2-(morpholin-4-yl)ethyl]biphenyl-4-yl}carbonyl)amino]propanediamide] was tested, and the IC50 was less than 10 nM.
With `CNC(=O)C(C(=O)NO)N(C)C(=O)c1ccc(-c2ccc(C(C)(C)O)cc2)cc1` (stereo not shown) [Compound 262, N-hydroxy-2-[{[4′-(2-hydroxypropan-2-yl)biphenyl-4-yl]carbonyl}(methyl)amino]-N′-methylpropanediamide] the IC50 was 10 to 100 nM.
Work on `CNC(=O)C(C(=O)NO)N(C)C(=O)c1ccc(-c2ccccc2)cc1C` (stereo not shown) [Compound 21, N-hydroxy-N′-methyl-2-{methyl[(3-methylbiphenyl-4-yl)carbonyl]amino}propanediamide] yielded an IC50 greater than 100 nM.
`CNC(=O)C(C(=O)NO)N(C)C(=O)c1cnc(-c2ccc3c(c2)OCO3)c(F)c1` (stereo not shown) [Compound 458, 2-[{[6-(1,3-benzodioxol-5-yl)-5-fluoropyridin-3-yl]carbonyl}(methyl)amino]-N-hydroxy-N′-methylpropanediamide] gave an IC50 of 10 to 100 nM.
Work on `CN(C(=O)c1ccc(-c2ccccc2)cc1)C(C(=O)NO)C(=O)NCc1ncccn1` (stereo not shown) [Compound 170, 2-[(biphenyl-4-ylcarbonyl)(methyl)amino]-N-hydroxy-N′-(pyrimidin-2-ylmethyl)propanediamide] yielded an IC50 greater than 100 nM.
`CNC(=O)C(C(=O)NO)N(C)C(=O)c1ccc(-c2ccc(OCCCn3ccnc3)cc2)cc1` (stereo not shown) [Compound 96, N-hydroxy-2-[({4′-[3-(1H-imidazol-1-yl)propoxy]biphenyl-4-yl}carbonyl)(methyl)amino]-N′-methylpropanediamide] gave an IC50 of less than 10 nM.
`CCN(C(=O)c1ccc(-c2ccccc2)cc1)C(C(=O)NC)C(=O)NO` (stereo not shown) [Compound 159, 2-[(biphenyl-4-ylcarbonyl)(ethyl)amino]-N-hydroxy-N′-methylpropanediamide] was tested, and the IC50 was 10 to 100 nM.
`CNC(=O)C(C(=O)NO)N(C)C(=O)c1ccc(-c2ccc(C#CCO)cc2)cc1` (stereo not shown) [Compound 389, N-hydroxy-2-[{[4′-(3-hydroxyprop-1-yn-1-yl)biphenyl-4-yl]carbonyl}(methyl)amino]-N′-methylpropanediamide] was tested, and the IC50 was less than 10 nM.
`Cn1nccc1CNC(=O)C(NC(=O)c1ccc(-c2ccc(OCCO)cc2)cc1)C(=O)NO` (stereo not shown) [Compound 146, N-hydroxy-2-({[4′-(2-hydroxyethoxy)biphenyl-4-yl]carbonyl}amino)-N′-[(1-methyl-1H-pyrazol-5-yl)methyl]propanediamide] gave an IC50 of less than 10 nM.
`CNC(=O)C(C(=O)NO)N(C)C(=O)c1ccc(-c2ccc(CN(C)C(C)=O)cc2)cc1` (stereo not shown) [Compound 239, 2-{[(4′-{[acetyl(methyl)amino]methyl}biphenyl-4-yl)carbonyl](methyl)amino}-N-hydroxy-N′-methylpropanediamide] gave an IC50 of 10 to 100 nM.
Work on `CNC(=O)C(C(=O)NO)N(CCF)C(=O)c1ccc(-c2ccccc2)cc1` (stereo not shown) [Compound 193, 2-[(biphenyl-4-ylcarbonyl)(2-fluoroethyl)amino]-N-hydroxy-N′-methylpropanediamide] yielded an IC50 of less than 10 nM.
`CNC(=O)C(C(=O)NO)N(C)C(=O)c1ccc(-c2ccc(OCCCN3CC=CCC3)cc2)cc1` (stereo not shown) [Compound 263, 2-[({4′-[3-(3,6-dihydropyridin-1(2H)-yl)propoxy]biphenyl-4-yl}carbonyl)(methyl)amino]-N-hydroxy-N′-methylpropanediamide] gave an IC50 of 10 to 100 nM.
For `CNC(=O)C(C(=O)NO)N(C)C(=O)c1ccc(-c2ccccc2)cc1O` (stereo not shown) [Compound 24, N-hydroxy-2-{[(3-hydroxybiphenyl-4-yl)carbonyl](methyl)amino}-N′-methylpropanediamide], the IC50 was greater than 100 nM.
Work on `CNC(=O)C(C(=O)NO)N(C)C(=O)C1CCC(c2ccc(Cl)cc2)CC1` (stereo not shown) [Compound 273, 2-[{[4-(4-chlorophenyl)cyclohexyl]carbonyl}(methyl)amino]-N-hydroxy-N′-methylpropanediamide] yielded an IC50 greater than 100 nM.
Work on `CNC(=O)C(C(=O)NO)N(C)C(=O)c1ccc(-c2ccc(NCC3CC3)cc2)cc1` (stereo not shown) [Compound 79, 2-[({4′-[(cyclopropylmethyl)amino]biphenyl-4-yl}carbonyl)(methyl)amino]-N-hydroxy-N′-methylpropanediamide] yielded an IC50 of less than 10 nM.
For `CNC(=O)C(C(=O)NO)N(C)C(=O)c1ccc(-c2cccc(OC)n2)cc1` (stereo not shown) [Compound 296, N-hydroxy-2-[{[4-(6-methoxypyridin-2-yl)phenyl]carbonyl}(methyl)amino]-N′-methylpropanediamide], the IC50 was greater than 100 nM.
In the case of `CNC(=O)C(C(=O)NO)N(C)C(=O)c1ccc(Cc2ccccc2)cc1` (stereo not shown) [Compound 445, 2-{[(4-benzylphenyl)carbonyl](methyl)amino}-N-hydroxy-N′-methylpropanediamide], the IC50 is reported as greater than 100 nM.
For `CNC(=O)C(C(=O)NO)N(C)C(=O)c1ccc(-c2nc3ccccc3o2)cc1` (stereo not shown) [Compound 347, 2-[{[4-(1,3-benzoxazol-2-yl)phenyl]carbonyl}(methyl)amino]-N-hydroxy-N′-methylpropanediamide], the IC50 was greater than 100 nM.
`CNC(=O)C(C(=O)NO)N(C)C(=O)c1ccc(-c2ccc(C)cc2F)c(F)c1` (stereo not shown) [Compound 460, 2-{[(2,2′-difluoro-4′-methylbiphenyl-4-yl)carbonyl](methyl)amino}-N-hydroxy-N′-methylpropanediamide] gave an IC50 of less than 10 nM.
For `CNC(=O)C(C(=O)NO)N(C)C(=O)c1ccc(-c2ccc(OCCCN3CCOCC3)c(F)c2)cc1` (stereo not shown) [Compound 208, 2-[({3′-fluoro-4′-[3-(morpholin-4-yl)propoxy]biphenyl-4-yl}carbonyl)(methyl)amino]-N-hydroxy-N′-methylpropanediamide], the IC50 was less than 10 nM.
`CNC(=O)C(C(=O)NO)N(C)C(=O)c1ccc(-c2cncc(OC)c2)cc1` (stereo not shown) [Compound 447, N-hydroxy-2-[{[4-(5-methoxypyridin-3-yl)phenyl]carbonyl}(methyl)amino]-N′-methylpropanediamide] was tested, and the IC50 was greater than 100 nM.
`O=C(NC(C(=O)NO)C(=O)NCC(F)F)c1ccc(-c2ccc(OCCO)cc2)cc1` (stereo not shown) [Compound 137, N-(2,2-difluoroethyl)-N′-hydroxy-2-({[4′-(2-hydroxyethoxy)biphenyl-4-yl]carbonyl}amino)propanediamide] was tested, and the IC50 was 10 to 100 nM.
